Tested on: hypertensive patients
Assay: Two separate studies: blood pressure change with HCTZ, Losartan and rostafuroxin in patients carrying profile 4, 8 or 9
Type: in vivo, human
Conditions: preliminary data; for modification in blood pressure: individuals carrying profile 4
Excerpt: In particular, individuals carrying profile 4 show a modification in blood pressure of: −12.3±1.5 mmHg with HCTZ; −11.3±1.7 with Losartan and −18.74±1.8 mmHg with rostafuroxin; individuals with profile 8 show the a decrease in blood pressure of −11.3±1.2 with HCTZ; −11.6±1.3 with Losartan and −15.2±1.5 mmHg with rostafuroxin; individuals with profile 9 show the a decrease in blood pressure of −11.9±1.2 with HCTZ; −11.4±1.4 with Losartan and −15.2±1.5 mmHg with rostafuroxin.

| SMILES | modification in blood pressure [mmHg] | decrease in blood pressure (individuals with profile 8) [mmHg] | decrease in blood pressure (individuals with profile 9) [mmHg] |
| --- | --- | --- | --- |
| NS(=O)(=O)c1cc2c(cc1Cl)NCNS2(=O)=O [HCTZ, 6-chloro-1,1-dioxo-3,4-dihydro-2H-1,2,4-benzothiadiazine-7-sulfonamide] | −12.3±1.5 | −11.3±1.2 | −11.9±1.2 |
| CCCCc1nc(Cl)c(CO)n1Cc1ccc(-c2ccccc2-c2nnn[nH]2)cc1 [Losartan, (2-butyl-4-chloro-1-{[2′-(1H-tetrazol-5-yl)biphenyl-4-yl]methyl}-1H-imidazol-5-yl)methanol] | −11.3±1.7 | −11.6±1.3 | −11.4±1.4 |

Source: patent US9408854B2, “Methods and systems for pharmacogenomic treatment of cardiovascular conditions” (ROSTAQUO S.P.A., priority 2009, dated 2016)
